Assay results published in patent US20250032425A1, “FIRST IN CLASS USE OF ESTROGEN RECEPTOR BETA AGONISTS IN TREATING ANGELMAN SYNDROME AND RELEVANT AUTISM SPECTRUM DISORDERS” (BROWN UNIVERSITY, priority 2023, published 2025).
“Also recorded” adds a separate entry of the source.

Legend:
[1] = system: Angelman syndrome (AS) mice; experiment: Immunofluorescence histopathology of brain sections after treatment (oligodendroglia, myelination, ESRβ, UBE3A); type: in vivo, mouse
Procedure: For immunofluorescence with brain tissue sections, mice were sacrificed under deep anesthesia using Xylazine (10 mg/kg body weight) and Ketamine (100 mg/kg body weight) and perfused through the left cardiac ventricle with ice-cold phosphate-buffered saline (PBS) followed by 4% paraformaldehyde (PFA) in PBS. Whole brains were removed and post-fixed in 4% PFA overnight at 4° C. followed by sequential immersion in 15% and 30% sucrose for cryoprotection. The brain was then dissected and 25 μm coronal sections were prepared with a Cryostat Leica. Sections collected on the charged microscope slides (Globe Scientific #1354W) were processed for immunohistochemical staining as follows. In brief, tissue sections were blocked for 1 hour at room temperature (RT) in 5% goat/donkey serum (G/DS) with 0.3% Triton-X100 in 0.1 M phosphate buffer (0.3% PBST). After blocking, tissue sections were incubated in primary antibody diluted in blocking solution overnight at 4° C. The following day, sections were briefly washed 3 times for 5 min each at RT in PBS followed by incubation with secondary antibodies diluted in blocking solution for 2 hours at RT. Sections were then briefly washed 3 times for 5 min each at RT in PBS and mounted using EMS Shield Mount with Dabco (Electron Microscopy Sciences, #17985-200) mounting media with 4′,6-diamidino-2-phenylindole (DAPI) (Vector Laboratories, #H-1200) to stain cell nuclei.
For the purpose of imaging brain sections, we utilized both the BioTek Lionheart FX Automated Microscope and the Zeiss LSM 880 confocal laser-scanning microscope. The subsequent image analysis and quantification were conducted using NIH ImageJ software, employing the particle and intensity analysis macro for detailed examination. Channels were separated, and images from various experimental groups were thresholded uniformly to identify individual cells. In each brain, 20-30 cells were outlined for analysis. To determine the extent of colocalization, we applied the Zeiss ZEN Microscopy Software's colocalization coefficient analysis tool, which allowed for precise measurement of overlapping signals within the selected cells.
To assess the levels of UBE3A protein within oligodendroglial cells, dual immunofluorescent staining was conducted. This involved the use of a UBE3A antibody sourced from Santa Cruz Biotechnology (sc-10294) and an Olig2 antibody provided by Aves Labs (#OLIG2-0020). The corresponding secondary antibodies were tagged with Alexa 647 and Alexa 488 fluorophores. These procedures were applied to coronal brain sections harvested from postnatal days 7-10, 30, and 42 from both control and Angelman Syndrome (AS) mice. We utilized a 20× objective on a GENS microscope to capture confocal images of UBE3A and Olig2 expression. Subsequent analysis was performed using NIH ImageJ software, where fluorescence intensities, denoted in arbitrary units (a.u.), were measured to determine the relative quantities of UBE3A protein. The quantification process involved delineating areas of interest around Olig2-positive cells. Quantitative analysis of ESR2 and MBP proteins was carried out using a similar method.
(§1) ESRβ agonist AC-186 treatment in vivo. 10 mg/kg AC-186 was daily IP delivered after dissolved at high concentration (30 mg/ml) in DMSO and further diluted in 20% PEG300. Vehicle groups received the same volume and concentration of diluted DMSO in 20% PEG300. Treatment started at P13 and continued until mice were sacrificed at P42.

[2] = system: Angelman syndrome (AS) mice; experiment: Accelerating Rotarod test in AS mice; type: in vivo, mouse; conditions: 10 mg/kg daily IP, days 1-3, vs AS vehicle
Procedure: Animal handling and experimental use strictly followed NIH guidelines and protocols approved by the local Institutional Animal Care and Use Committee (IACUC) of Brown University. In all experiments, Mice were age and gender-matched. Multiple liters were used for all experiments. Weaned mice, housed in groups of two to four per cage, were maintained on a 12-h light/dark cycle with food and water ad libitum.
as §1
This involved conducting two trials per day for three consecutive days, with a 20-minute rest interval between trials. During each trial, mice were placed on a rod that accelerated from 4 to 40 RPM over a five-minute period, and the time until each mouse fell was recorded. The average duration before falling was tracked and graphed across the three-day span.

[3] = system: AS iOPCs differentiated into iOLs; experiment: Differentiation of AS patient-derived iOPCs into iOLs (MAG, CNPase, MBP); type: cell-based, human; conditions: AC-186 10 μM or clemastine 2.5 μM, 72 hours
[4] = corpus callosum, AS mice vs AS saline
[5] = corpus callosum, AS mice vs AS vehicle
[6] = cortex, hippocampus, and fimbria, AS mice vs AS saline

`Oc1ccc(C2(c3ccccc3F)CCC(F)(F)CC2)cc1` [AC-186] was tested, and the UBE3A intensity ([1]; AS mice vs AS saline) was “did not modify; also recorded: comparable”, the “oligodendrocyte populations and myelination” value ([1]; AS mouse brains) was “notably restored” and the “ESRβ intensity in Olig2-positive and O4-positive cells” value [1, 4] was “slightly increased; also recorded: increased”. For the same compound, the “O4-positive cells/mm^2” value [1, 4] was “increased”, the “Olig2-positive cells/mm^2” value [1, 4] was “increased” and the “OPC density (PDGFRa-positive cells per square millimeter)” value [1, 5] was “increased”. For the same compound, the “proliferating OPCs (Ki67 and PDGFRa dual positive, proportion of total OPCs)” value [1, 5] was “increased”, the MBP intensity [1, 6] was “increased” and the O4-positive cell density [1, 6] was “increased”. The Olig2-positive cell density [1, 6] was “increased”, the “oligodendrocyte populations and myelination” value ([1]; wildtype mice) was “no impact” and the “Rotarod time to fall” value [2] was “significant improvements; also recorded: increased”. The “oligodendrocyte differentiation (MAG, CNPase, MBP)” value [3] was “no impact on oligodendrocyte differentiation”.
